“Also recorded” adds a separate entry of the source.
Columns and labels:
ovalbumin = molecular target: T1, ovalbumin (Gallus gallus, UniProt P01012); assay: Transmission electron microscopy of ovalbumin heated in the presence of small compounds; design: species or system chicken; conditions: 1 mg/ml ovalbumin heated with 1 mg/ml compound
T1 construct: purchased Sigma A5503
T1 sequence (P01012 1-386): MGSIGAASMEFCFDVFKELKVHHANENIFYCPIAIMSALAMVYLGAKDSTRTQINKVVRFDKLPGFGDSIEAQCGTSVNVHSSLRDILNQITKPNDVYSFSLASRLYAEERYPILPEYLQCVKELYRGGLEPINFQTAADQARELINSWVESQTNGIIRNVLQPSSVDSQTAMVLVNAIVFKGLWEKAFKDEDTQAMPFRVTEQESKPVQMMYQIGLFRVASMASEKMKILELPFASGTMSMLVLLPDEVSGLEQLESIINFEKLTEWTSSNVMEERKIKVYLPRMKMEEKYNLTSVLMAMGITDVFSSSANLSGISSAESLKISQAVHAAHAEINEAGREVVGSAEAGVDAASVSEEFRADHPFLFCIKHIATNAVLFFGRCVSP
In short: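 Ovalbumin at 1 mg/ml was applied to carbon-coated Formvar copper grids, washed with PBS and water, then stained 2 min in 2% methylcellulose with 0.4% uranyl acetate, pH 4. Grids were dried and imaged by TEM at 80 kV.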

[1] = tested on: misfolded proteins (Hb-AGE, Aβ); assay: Binding of misfolded proteins from solution to immobilized small compounds (overall); conditions: compounds coated on ELISA plates, Hb-AGE or Aβ in solution
Protocol: (§1) To test the ability of the twelve selected compounds (see Table 7) to bind to misfolded proteins, the compounds were immobilized at 10/100/1000 μg/ml in the wells of 96-wells Greiner Microlon high binding plates, Nunc amino Immobilizer plates and Nunc Maxisorp plates. Compounds were coated in 100 mM NaHCO3 pH 9.6, 50 μl/well, 1 h at room temperature with agitation. As a control, wells were coated with buffer only. After blocking of the plates, wells were overlayed with solutions of 0.1/1/10 μg/ml Hb-AGE or 10/100 μg/ml Aβ, in binding buffer (PBS/0.1% Tween20). After washing, binding of Hb-AGE was assessed by overlaying wells with 1 μg/ml hybridoma antibody 4B5, which binds to glycations(^2), followed by RAMPO. Binding of Aβ was visualized using 500× diluted anti-Aβ antibodies (mouse antibody beta-amyloid Clone 6F/3D #M0872, lot 00003503, DAKOCytomation; β-amyloid (H-43) SC-9129, 200 μg/ml rabbit polyclonal IgG, Santa Cruz Biotechnology) and RAMPO/SWARPO in a 1:1 ratio. Finally, wells were overlayed with OPD/H2O2 solution, and H2SO4, before absorbance readings at 490 nm.

heat-denatured ovalbumin = molecular target: T2, heat-denatured ovalbumin (Gallus gallus, UniProt P01012); assay: Thioflavin T fluorescence of ovalbumin and small compounds; design: species or system chicken
T2 construct: purchased Sigma A5503
T2 sequence (P01012 1-386): T1 sequence (P01012 1-386)
In short: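 Heat-denatured ovalbumin at 1 mg/ml in PBS, alone, with 1% v/v DMSO or with 1 mg/ml compound (also heat-denatured after compound addition), mixed 1:9 with 25 μM ThT in 50 mM glycine pH 9.0. Fluorescence read in duplicate at 435 nm excitation, 485 nm emission.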

amyloid-β(1-40) E22Q = molecular target: T3, amyloid-β(1-40) E22Q (Homo sapiens, UniProt P05067, E693Q); assay: ELISA binding of tPA to immobilized Aβ after pre-incubation with compounds; conditions: for % tPA binding (after compound incubation), Aβ: 1 μg/ml coated Aβ first exposed to 500 μg/ml compound, then 80 nM tPA, control = 100; for influence on tPA binding to immobilized Aβ: Aβ first overlayed with compound (concentration series), then tPA
T3 construct: For similar ELISA's with DOVA and Aβ(1-40) E22Q, 1 μg/ml DOVA or Aβ was coated; purchased Peptide facility, Dutch Cancer Institute, Amsterdam; host or cells: synthetic peptide
Protocol: Compounds were now diluted 10× in PBS/0.1% Tween20 (500 μg/ml compound). […] With this approach a further selection of the compounds was achieved. Now, compounds that at least interact with HB-AGE are selected. With the selection, similar binding assays are performed with misfolded OVA and Aβ. Finally, concentration series of the selected compounds are used in the binding studies.

Hb-AGE = molecular target: T4, Hb-AGE (Homo sapiens, UniProt P68871+P69905); assay: Binding of Hb-AGE from solution to immobilized small compounds
T4 construct: purchased Sigma-Aldrich H7379
Protocol: as §1, with “the compounds were immobilized at 10/100/1000 μg/ml in the wells of 96-wells” left out

T3 sequence (P05067 672-711 E693Q): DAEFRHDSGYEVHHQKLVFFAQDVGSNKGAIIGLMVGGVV
T4 sequence (P69905 2-142 limits assumed): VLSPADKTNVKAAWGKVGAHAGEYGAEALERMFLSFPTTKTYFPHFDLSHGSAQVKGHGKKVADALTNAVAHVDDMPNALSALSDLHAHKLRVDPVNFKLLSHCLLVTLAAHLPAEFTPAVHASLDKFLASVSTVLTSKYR
T4 sequence (P68871 2-147 limits assumed): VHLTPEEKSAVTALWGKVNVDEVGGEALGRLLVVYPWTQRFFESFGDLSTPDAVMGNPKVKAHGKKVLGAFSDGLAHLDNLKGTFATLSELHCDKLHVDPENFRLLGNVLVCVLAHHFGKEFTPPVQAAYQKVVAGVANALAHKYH

SMILES | appearance of ovalbumin heated in the presence of compound on TEM image (ovalbumin) | capture of misfolded protein from solution by immobilized compound [1] | influence on Thioflavin T fluorescence with misfolded OVA (heat-denatured ovalbumin; 1 mg/ml compound, 1 mg/ml OVA) | % tPA binding (after compound incubation), Aβ (amyloid-β(1-40) E22Q) [%] | influence on tPA binding to immobilized Aβ (amyloid-β(1-40) E22Q) | Signal (a.u.) (Hb-AGE; Nunc Maxisorp, coat 100 μg/ml, Hb-AGE 1 μg/ml) | Signal (a.u.) (Hb-AGE; Nunc amino Immobilizer, coat 1 μg/ml, Hb-AGE 10 μg/ml) | Signal (a.u.) (Hb-AGE; Nunc Maxisorp, coat 100 μg/ml, Hb-AGE 0.1 μg/ml) | appearance of ovalbumin heated in the presence of compound on TEM image (ovalbumin; hydrate) | reduction in Thioflavin T fluorescence enhancement, compound and OVA heated together (heat-denatured ovalbumin; 1 mg/ml compound, 1 mg/ml OVA, PBS/1% DMSO) [%] | inhibition at 1000 µg/mL (heat-denatured ovalbumin; 1 mg/ml compound, 1 mg/ml OVA, PBS/1% DMSO, read-out: inhibition of Thioflavin T fluorescence, compound mixed with pre-formed misfolded OVA) [%] | formation of Thioflavin T binding sites in heated OVA (heat-denatured ovalbumin; OVA and compound heated together) | Signal (a.u.) (Hb-AGE; Greiner Microlon, coat 100 μg/ml, Hb-AGE 10 μg/ml) | Signal (a.u.) (Hb-AGE; Nunc Maxisorp, coat 100 μg/ml, Hb-AGE 10 μg/ml)
COc1cc2c(cc1O)C[C@H]1c3c(cc(OC)c(O)c3-2)CCN1C [compound 202, Isoboldine] | Larger and more dense aggregates than control. Small | Capture of misfolded protein from solution | Inhibition on Thioflavin T fluorescence with misfolded OVA | 250 | Stimulated tPA binding to immobilized misfolded protein (Aβ, | 0.46 | 0.20 |  |  |  |  |  |  | 
COc1cc2c(cc1OC)-c1c(O)c(OC)cc3c1[C@H](C2)N(C)CC3 [compound 201, Thaliporphine, thalicmidine] | Spherical aggregates with background of smaller | Capture of misfolded protein from solution | Inhibition of Thioflavin T fluorescence with misfolded OVA | 400 |  |  |  | 0.55 |  |  |  |  |  | 
O=c1oc2c(O)c(O)cc3c(=O)oc4c(O)c(O)cc1c4c23 [compound 117, Ellagic acid hydrate] |  | Capture of misfolded protein from solution | Inhibition on Thioflavin T fluorescence with misfolded OVA |  | Stimulated tPA binding to immobilized misfolded protein (Hb- |  |  |  | less OVA aggregates after heating in the presence of the; also recorded: Clusters of needle-like structures. No aggregates | 90 | ~50 | Inhibition of formation of Thioflavin T binding sites in heated | 0.13 | 0.15
